The text below walks through data of patent US12029715B2, “Precursor compounds for providing retinoids of the vitamin A5 pathway and uses thereof” (UNIVERSITY OF DEBRECEN, priority 2015, dated 2024).

Entries after “also recorded” stand apart in the source; their conditions may differ.

Data set [1] relates to human oligodendrocytes cell cultures. Description: Metabolic conversion in human oligodendrocytes cell culture (HPLC-MS). The class given is in vitro ADME. The conditions noted are these: for 9CDHRA levels in cells after treatment (metabolism / accumulation): 10^−6M, n=3. The gist of the method:
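Cultured human oligodendrocytes at 80% confluency were treated with each retinoid or carotenoid at 10^−6 M for 18 h, with ethanol vehicle as control. Harvested cells were analysed by HPLC-MS for 9CDHRA levels, n=3 with standard deviation.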

The test system of data set [2] is C57BL/6N mice. Nature of the data set: Chronic social defeat stress model, forced swim test. The class given is in vivo, mouse. On the procedure: (§1) The forced swim paradigm was carried out between 1 pm and 4 pm in a 3-litre glass beaker half-filled with water at 22-23° C. (the water depth was 17 cm). All mice were tested only once in this task. To this end, each mouse was lowered gently into the water and the time of immobility was scored during a 6-minute testing period. The mouse was judged immobile when it floated in an upright position and made only small movements to keep its head above the water. After 6 min, the mouse was taken out of the water, left to dry under a red light lamp and returned to its home cage. The immobility scores of each animal were used as an index of despair behavior.
Social defeat stress procedure was a modified version of the protocol previously described (Berton, McClung et al. 2006). C57BL/6N mice were defeated chronically for 10 consecutive days. Every day they were exposed to the physical contact with an unfamiliar CD1 aggressor in its home cage for maximal interaction time of 5 minutes. After each session of physical stress, C57BL/6N and CD1 mice were separated by a perforated wall and maintained in sensory contact for 24 h. After the last session of stress, mice were transferred into new cages and housed separately throughout the behavioral tests period. C57BL/6N control mice, similarly to the experimental animals, were housed two per cage separated by a metal perforated wall. Every day, they were exposed to the physical contact for 5 minutes.
For behavioral analysis, 9CDHROL and 9CDHBC were dissolved in ethanol, and then mixed with sunflower oil, so that the final solution contained 3% ethanol. Vehicle treatments consisted of 3% ethanol solution in sunflower oil. For memory studies treatments with 9CDHRA were administered by intraperitoneal injections at volume/weight ratio 3 ml/kg at 7 am and 7 hours before the beginning of testing. For tests with animal model of chronic social defeat, different treatments were administered by intraperitoneal injections at volume/weight ratio 3 ml/kg at 10 mg/kg for each substance between 5-6 pm every second day of stress protocol immediately after the stress session starting from day 1 of the stress protocol.
as §1, with “paradigm (Dalvi and Lucki, 1999)” for “paradigm”, “2-litre” for “3-litre”
Social defeat stress procedure was a modified version of the protocol previously described (Berton et al. 2006). C57BL/6N mice were defeated chronically for 10 consecutive days. Every day they were exposed to the physical contact with an unfamiliar CD1 aggressor in its home cage for maximal interaction time of 5 minutes. After each session of physical stress, C57BL/6N and CD1 mice were separated by a perforated wall and maintained in sensory contact for 24 h. After the last session of stress, mice were transferred into new cages and housed separately throughout the behavioral tests period. […]

The subject of data set [3] is oligodendrocytes cell line 158N. Nature of the data set: Metabolic conversion in mouse oligodendrocytes cell culture (LC-MS). The class given is in vitro ADME. The conditions noted are these: for 9CDHRA levels in cells after treatment: 10^−5M for 18 h; for ATROL levels in cells after treatment: 10^−6M. The essentials:
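Mouse 158N oligodendrocytes at 70–80% confluency were treated with retinoid precursors or esters, with ethanol as vehicle, at 10^−6 M in one variant and from a 10^−2 M ethanol solution in the other. Cells were harvested after 18 h under limited light. Metabolites were analysed by LC-MS.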

Data set [4] deals with Rbp1−/−, Rxrγ−/− and WT mice. Description: Forced swim test after acute treatment. In kind it is in vivo, mouse. The conditions noted are these: for immobility (despair) in the forced swim test: acute i.p. treatment 5-6 h before the test. On the procedure: as §1
Vehicle treatments consisted of 3% ethanol and 3% DMSO solution in sunflower oil. Treatments were administered by intraperitoneal injections at volume/weight ratio 3 ml/kg between 8-10 am and 5-6 h before the test as previously validated (Wietrzych-Schindler M, 2011).
as §1, with “paradigm (Dalvi and Lucki, 1999)” for “paradigm”, “2-litre” for “3-litre”

Data set [5] deals with T1, hRXRα LBD (Homo sapiens, UniProt P19793).
T1 sequence (P19793 223-462): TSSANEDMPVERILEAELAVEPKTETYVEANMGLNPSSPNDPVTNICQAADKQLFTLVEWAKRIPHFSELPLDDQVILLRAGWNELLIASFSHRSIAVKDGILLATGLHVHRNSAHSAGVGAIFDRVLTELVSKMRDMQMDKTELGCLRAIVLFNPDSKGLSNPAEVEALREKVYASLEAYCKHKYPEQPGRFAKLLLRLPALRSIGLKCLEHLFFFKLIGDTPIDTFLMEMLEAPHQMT
Nature of the data set: Fluorescence quenching assay, binding to RXRα LBD.
Method: Quenching of tryptophan fluorescence was monitored at 10° C. using 5 nm of excitation and 5 nm of emission slit-width.

Consider `CC1=C(/C=C/C(C)=C\C=C\C(C)CCO)C(C)(C)CCC1` (stereo not drawn) [9CDHROL, 9-cis-13,14-dihydroretinol], for which, in data set [1], the “9CDHRA levels in cells after treatment (metabolism / accumulation)” value is “moderately but significantly metabolized”. Also, in data set [1] (in vitro), the “precursor substrate of 9CDHROL” value is “excellent precursor substrates”. The “immobility time in the forced swim test” value in data set [2] (stressed mice, 10 mg/kg i.p. every second day of stress protocol, 10 mg/kg) is on record as “decreased such immobility; also recorded: efficiently normalised immobility time”. Also, in data set [3], the “9CDHRA levels in cells after treatment” value is given as “strong increase” and the “ATROL levels in cells after treatment” value was “a low conversion or induced increase”. The “9CDHROL levels in cells after treatment” value in data set [3] (10^−6 M, 18 hours) is given as “increases; also recorded: excellent/strongly”. In data set [3] (data not shown), the “conversion to 9CDHRA” value is reported as “excellent precursor”.
As to `CC1(C)CCC(C)(C)c2cc(C3(c4ccc(C(=O)O)cc4)OCCO3)ccc21` [UVI2108, reference compound], in data set [2] (stressed mice, UVI2108 during the stress protocol), the “immobility time in the forced swim test, compared with 9CDHRA” value is given as “comparable”. The “immobility (despair) in the forced swim test” value in data set [4] (Rbp1−/− mice) is “reduced significantly immobility time”.
In turn, `CC1=C(/C=C/C(C)=C\C=C\[C@H](C)CC(=O)O)C(C)(C)CCC1` [(R)-9CDHRA, (9Z,13R)-13,14-Dihydroretinoic Acid] showed a Kd in data set [5] of 90 ± 20 nM. Further, the “immobility (despair) in the forced swim test” value in data set [4] (Rbp1−/− mice) is on record as “reduce despair behavior; also recorded: reduced in dose dependent manner immobility”. Moreover, in data set [4] (Rbp1−/− mice, acute treatment), the “dose attaining maximal effect on immobility in the forced swim test” value was 1 mg/kg. Besides, the “immobility time in the forced swim test” value in data set [4] (Rxrγ−/− mice, 2 mg treatment) came out at 120 ± 25 s.
Turning to `CC(C=CC1=C(C)CCCC1(C)C)=CC=CC(C)CC(=O)O` (stereo not drawn) [9CDHRA, 9-cis-13,14-dihydroretinoic acid], the “9CDHRA levels in cells after treatment (metabolism / accumulation)” value in data set [1] is “strong accumulation”. This molecule had a Kd in data set [5] of 90 ± 20 nM. For the same molecule, in data set [2] (3 mg/kg), the “immobility time versus stressed, nontreated mice” value was “displayed anti-despair effects”. Besides, the “immobility time in the forced swim test” value in data set [2] (stressed mice, 1 or 3 mg/kg during the stress protocol) is “decreased such immobility in stressed mice in a dose dependently manner; also recorded: efficiently normalized immobility time”. Further, in data set [3], the “9CDHRA levels in cells after treatment” value was “very strong increase” and the “ATROL levels in cells after treatment” value was “a low conversion or induced increase”.
